# Values joined by “and” are separate entries in the source; they are usually repeats but may differ in a detail not shown here. Equal values may be shown once. “Also recorded” adds a separate entry of the source. Positions of bridges follow the written chain, without caps; N, C: chain ends. Residues, ends and D or L forms follow the SMILES beside them.
# Legend:
# [1] = system: Irradiation-induced lesions in the mucosa; test: Radioprotective effect of rectally applied gel on irradiated rectal mucosa: histological grading and body weight; format: in vivo, Wistar rats; conditions: for Body weight change / Change of glandular structure / Fibrosis / Ulceration - abscessa development in crypts / Sum of parameters: one value per rat; for Sum of parameters: histological grading
# Protocol: For studies of the radioprotective effect of TGLVP Wistar rats (body weight 187-394 g) were used and treated in pairs at the same time. In each pair, one rat was treated rectally with TGLVP, while the other rat, the control rat, was given CMC solution rectally. The gels were applied in the same manner as described above. For anaesthesia, nembutal was given intraperitoneally. The rats were irradiated with 240 kV X-rays (0.2 Cu filtration), using AP and PA fields in size 4 × 3 cm. This gave a uniform dose in the lower part of the abdomen corresponding to the position of the rectum. 10 Gy were given on day 1, and 10 Gy on day 4. The rats were killed 14 days after the treatment, and the rectum was removed for histological analysis. The rats were weighed before treatment and when they were killed. 10 rats were treated with 1600 µg TGLVP 15 min before irradiation (Tables IV and V) 5 rats were treated with 800 µg TGLVP 15 min before irradiation (Table V) 10 rats were given 1600 µg TGLVP 30 min before treatment (Table III) 5 rats were given 3200 µg TGLVP 15 min before treatment (Table I) 5 rats were given 3200 µg TGLVP 30 min before treatment (Table II)
# Histological grading (sum of parameters) was performed in accordance with an evaluation system in which 0 is the normal structure and 6 indicates maximum change. Irradiation-induced lesions in the mucosa were determined arbitrarily by means of the following parameters: • 1: The extent of fibrosis in the mucosa and submucosa. • 2: The change of glandular structure in the mucosa. • 3: Ulcerations in the mucosa or abscesses in mucosal crypts.
# [2] = Studies of systemic circulation (dose titration) after rectal application of the gel: arterial pressure and pulse rate; format: in vivo, Wistar rats
# Protocol: The concentration of vasoconstrictive substance in the radioprotective gels according to the invention was determined according to the desire to provide a local vasoconstrictive effect (with subsequent hypoxia) in the mucosa, but without general secondary effect, such as blood pressure increase and bradycardia. To achieve this, dose titration studies of the different vasoconstrictive substances were carried out, i.e. the dose just below the threshold of general circulatory response was defined. Due to interaction (electrostatic binding) between the active substance and the different thickening agents, the dose for a specific vasoconstrictive substance varied depending upon the thickening agent employed.
# For studies of systematic circulation, Wistar rats (body weight 177-296 g) were used. TGLVP was administered rectally by means of a Nelaton-Foley catheter inserted through the anus until the balloon was 5 cm away from the anus. The balloon was then filled to ensure that the catheter stayed in position and to prevent TGLVP from reaching the upper parts of the bowel. TGLVP was dissolved in a 1% by weight aqueous solution of sodium carboxymethyl cellulose (CMC) and was in contact with all parts of the mucosa during the test. The volume applied amounted to half a milliliter. Three dose levels of TGLVP were tested, i.e. 800 µg, 1600 µg and 3200 µg. For each dose level, use was made of five rats and a corresponding number of controls which were given CMC solution only. For anaesthesia, nembutal was used intraperitoneally. Mean values for arterial pressure and puls rate were recorded by means of a catheter in the aorta via the femoral artery.
# Dose titration was carried out in a similar manner on AVP, LVP, TGLVP with other thickening agents, Angiotensin II and norepinephrine.
# [3] = TGLVP 3200 µg/g in 1 weight% carboxymethyl cellulose, dose 1600 µg, 30 min before irradiation
# [4] = TGLVP 3200 µg/g in 1 weight% carboxymethyl cellulose, dose 1600 µg, 30 min before irradiation, grade 0-6
# [5] = TGLVP 6400 µg/g in 1 weight% carboxymethyl cellulose, dose 3200 µg, 15 min before irradiation, grade 0-6
# [6] = TGLVP 6400 µg/g in 1 weight% carboxymethyl cellulose, dose 3200 µg, 30 min before irradiation
# [7] = TGLVP 6400 µg/g in 1 weight% carboxymethyl cellulose, dose 3200 µg, 30 min before irradiation, grade 0-6
molecule,measurement,setting,value
"NCCCC[C@H](NC(=O)[C@@H]1CCCN1C(=O)[C@@H]1CSSC[C@H](NC(=O)CNC(=O)CNC(=O)CN)C(=O)N[C@@H](Cc2ccc(O)cc2)C(=O)N[C@@H](Cc2ccccc2)C(=O)N[C@@H](CCC(N)=O)C(=O)N[C@@H](CC(N)=O)C(=O)N1)C(=O)NCC(N)=O [TGLVP, triglycyl-lysine-vasopressin] (H-GGGCYFQNCPKG-NH2; disulfide 4-9)",function of the gel in radioprotective experiments,[1]; 1600-6400 µg per g of 1% by weight carboxymethyl cellulose in sterile deionised water,found to function as intended
same,Body weight change,[1]; [3],14 g and 3 g and 18 g and 7 g and 5 g
same,Change of glandular structure,[1]; [4],2 (4×) and 4
same,Fibrosis,[1]; [4],4 (4×) and 2
same,Ulceration - abscessa development in crypts,[1]; [4],0 (3×) and 2 (2×)
same,Sum of parameters,[1]; [3],6 (4×) and 10
same,Fibrosis,"[1]; TGLVP 6400 µg/g in 1 weight% carboxymethyl cellulose, dose 3200 µg rectally 15 min before irradiation (10 Gy day 1 and day 4), grade 0 normal, 6 maximum change, killed 14 days after treatment",4 and 2 (4×)
same,Body weight change,"[1]; TGLVP 6400 µg/g in 1 weight% carboxymethyl cellulose, dose 3200 µg, 15 min before irradiation, before treatment vs when killed",9 g and 4 g and 7 g and 15 g and 12 g
same,Change of glandular structure,[1]; [5],4 and 2 (2×) and 0 (2×)
same,Ulceration - abscessa development in crypts,[1]; [5],4 and 2 and 0 (3×)
same,Sum of parameters,"[1]; TGLVP 6400 µg/g in 1 weight% carboxymethyl cellulose, dose 3200 µg, 15 min before irradiation",12 and 6 and 2 (2×) and 4
same,Body weight change,[1]; [6],24 g and 7 g and 13 g and -2 g and 38 g
same,Change of glandular structure,[1]; [7],0 (2×) and 4 and 2 (2×)
same,Fibrosis,[1]; [7],4
same,Ulceration - abscessa development in crypts,[1]; [7],0 (2×) and 4 and 2 (2×)
same,Sum of parameters,[1]; [6],4 and 12 and 6 (2×) and 8
same,radioprotective effect,"[1]; dose of 1600 µg, rats",maximum radioprotective effect
same,radioprotection to the mucosa as compared with the controls,"[1]; dose of 3200, 1600 or 800 µg, irradiation 15 or 30 min after administration, summary of Tables I-V",gave radioprotection to the mucosa
same,radioprotection: effect of higher dose or longer time,"[1]; increase of dose from 1600 µg to 3200 µg, or of time from 15 to 30 min, compared with 1600 µg at 15 min, Tables I-IV",does not seem to give a better result
same,"protection, from body weight values","[1]; increasing the dose from 800 µg to 1600 µg, 15 min before irradiation, Table V",improved protection
same,circulatory changes,[2]; 128 µg in 0.9% by weight hydroxypropyl cellulose solution,without changes
same,circulatory changes,[2]; 128 µg in 1.2% by weight hydroxyethyl cellulose solution,no circulatory changes
same,circulatory changes,[2]; 256 µg in 0.9% by weight hydroxypropyl cellulose solution,without changes
same,blood pressure,"[2]; 256 µg in 1.2% by weight hydroxyethyl cellulose solution, at 75 and 90 minutes after application",gave a rise in blood pressure
same,pulse rate,"[2]; 256 µg in 1.2% by weight hydroxyethyl cellulose solution, at 5 minutes after application",decrease in pulse rate
same,circulatory changes (pulse),"[2]; 512 µg in 0.9% by weight hydroxypropyl cellulose solution, 15-120 minutes after application",gave a bradycardia
same,pulse rate,"[2]; 512 µg in 1.2% by weight hydroxyethyl cellulose solution, 10-45 minutes after application",bradycardia
same,blood pressure,"[2]; 512 µg in 1.2% by weight hydroxyethyl cellulose solution, 30 and 45 minutes after application",gave a rise in blood pressure
same,systemic circulatory response in the form of blood pressure increase or lower pulse,[2]; 800 µg rectally in 1% by weight sodium carboxymethyl cellulose (CMC),no systemic circulatory response
same,systemic circulatory response in the form of blood pressure increase or lower pulse,[2]; 1600 µg rectally in 1% by weight sodium carboxymethyl cellulose (CMC),no systemic circulatory response; also recorded: without general circulatory responses
same,systemic circulatory response in the form of blood pressure increase or lower pulse,[2]; 3200 µg rectally in 1% by weight sodium carboxymethyl cellulose (CMC),caused blood pressure increase in several animals
NC[C@H](O)c1ccc(O)c(O)c1 [norepinephrine],function of the gel in radioprotective experiments,[1]; 2 mg per g of 0.6% by weight hydroxyethyl cellulose in sterile deionised water,found to function as intended
same,"cases with radioprotection to the mucosa, as compared with the controls","[1]; dose of 1 mg, irradiation 15 min after administration, Table IX",5 out of 6
Angiotensin II,function of the gel in radioprotective experiments,[1]; 250 µg per g of 0.6% by weight hydroxyethyl cellulose in sterile deionised water,found to function as intended
same,"cases with radioprotection to the mucosa, as compared with the controls","[1]; dose of 125 µg, irradiation 15 min after administration, Table VIII",5 out of 6
"Angiotensin II (DRVYIHPF; Angiotensin-2; UniProt P01019 25-32, looked up)",changes in blood pressure or pulse rate,"[2]; doses of 0.1 µg to 500 µg in 0.6% by weight hydroxyethyl cellulose solution, even at the highest dose level, 75 or 140 minutes of follow-up",no significant changes in blood pressure or pulse rate
arginine-vasopressin [AVP],function of the gel in radioprotective experiments,[1]; 10 µg per g of 0.2% by weight carboxypolymethylene in sterile deionised water,found to function as intended
same,radioprotection to the mucosa as compared with the controls,"[1]; dose of 10 µg, irradiation 10 min after administration, Table VI, histological grading only",gave radioprotection to the mucosa
same,influence on blood pressure,"[2]; 25 µg in 0.2% by weight carboxypolymethylene solution, pulse rate not measured",without any significant influence on blood pressure
same,influence on blood pressure,"[2]; 50 µg in 0.2% by weight carboxypolymethylene solution, pulse rate not measured",without any significant influence on blood pressure
lysine-vasopressin [LVP],function of the gel in radioprotective experiments,[1]; 32 µg per g of 1.2% by weight hydroxyethyl cellulose in sterile deionised water,found to function as intended
same,radioprotection to the mucosa,"[1]; dose of 16 µg, irradiation 15 min after administration, Table VII",gave radioprotection to the mucosa
same,changes in systemic circulation,[2]; 4 µg in 1.2% by weight hydroxyethyl cellulose solution,without significant changes in systemic circulation
same,changes in systemic circulation,[2]; 8 µg in 1.2% by weight hydroxyethyl cellulose solution,without significant changes in systemic circulation
same,change in blood pressure,"[2]; 10 µg in 0.2% by weight carboxypolymethylene solution, pulse rate not measured",without any significant change in blood pressure
same,change in blood pressure,"[2]; 10 µg in 1% by weight sodiumcarboxymethyl cellulose (CMC) solution, pulse rate not measured",without any change in blood pressure
same,changes in systemic circulation,[2]; 16 µg in 1.2% by weight hydroxyethyl cellulose solution,without significant changes in systemic circulation; also recorded: caused no significant change in systemic circulation
same,change in blood pressure,"[2]; 20 µg in 0.2% by weight carboxypolymethylene solution, pulse rate not measured",without any significant change in blood pressure
same,change in blood pressure,"[2]; 20 µg in 1% by weight sodiumcarboxymethyl cellulose (CMC) solution, pulse rate not measured",without any change in blood pressure
same,pulse rate,[2]; 32 µg in 1.2% by weight hydroxyethyl cellulose solution,No decrease in pulse rate was noted
same,blood pressure,"[2]; 32 µg in 1.2% by weight hydroxyethyl cellulose solution, 5, 10, 15, 20, 25, 30, 45, 75 and 90 minutes after application",caused a rise in blood pressure
same,change in blood pressure,"[2]; 40 µg in 0.2% by weight carboxypolymethylene solution, significant at 10, 15, 20, 25, 45 and 60 minutes after application",gave a rise in blood pressure
same,change in blood pressure,"[2]; 40 µg in 1% by weight sodiumcarboxymethyl cellulose (CMC) solution, pulse rate not measured",without any change in blood pressure
same,change in blood pressure,"[2]; 80 µg in 0.2% by weight carboxypolymethylene solution, significant 5-60 minutes after application",gave a rise in blood pressure
same,change in blood pressure,"[2]; 80 µg in 1% by weight sodiumcarboxymethyl cellulose (CMC) solution, 5-45 minutes after application",caused a rise in blood pressure

# — patent publication EP0265400A2, “Topical radioprotective gel for mucosa” (priority 1986, dated 1988)
